These results are taken from PMC6315438 (Metabolites, 2018).

Broadly, the IC50 is the concentration that gives 50% inhibition. Low readings indicate greater potency, high ones weaker potency.

For this test, the target named is T1, aryl hydrocarbon receptor (AHR) (Homo sapiens, UniProt P35869).
T1 construct: human AHR in liver cytosol of mice expressing human AHR; also HepG2 (40/6) cells
T1 sequence (P35869 11-848): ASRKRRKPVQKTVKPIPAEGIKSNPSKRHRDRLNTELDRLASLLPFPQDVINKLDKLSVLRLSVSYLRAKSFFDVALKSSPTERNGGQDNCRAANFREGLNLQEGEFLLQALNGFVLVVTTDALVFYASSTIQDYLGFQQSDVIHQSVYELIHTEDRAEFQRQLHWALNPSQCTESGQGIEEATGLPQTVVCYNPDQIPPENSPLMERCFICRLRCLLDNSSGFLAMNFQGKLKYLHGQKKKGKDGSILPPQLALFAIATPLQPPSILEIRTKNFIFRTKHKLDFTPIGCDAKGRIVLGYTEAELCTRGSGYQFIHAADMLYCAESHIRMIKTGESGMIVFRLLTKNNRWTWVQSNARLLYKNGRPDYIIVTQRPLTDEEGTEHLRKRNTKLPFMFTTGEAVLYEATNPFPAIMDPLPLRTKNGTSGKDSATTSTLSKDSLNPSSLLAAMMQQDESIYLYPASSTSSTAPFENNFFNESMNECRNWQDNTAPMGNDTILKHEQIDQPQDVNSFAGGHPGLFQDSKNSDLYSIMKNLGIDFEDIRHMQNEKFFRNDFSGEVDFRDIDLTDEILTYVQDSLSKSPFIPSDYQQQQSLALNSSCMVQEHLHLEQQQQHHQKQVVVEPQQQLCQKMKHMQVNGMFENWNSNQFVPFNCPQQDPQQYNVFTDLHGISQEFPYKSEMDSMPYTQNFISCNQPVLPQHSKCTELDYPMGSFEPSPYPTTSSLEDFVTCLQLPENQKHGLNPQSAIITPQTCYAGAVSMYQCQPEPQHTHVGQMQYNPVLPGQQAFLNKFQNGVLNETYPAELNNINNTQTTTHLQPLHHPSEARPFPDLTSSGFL
The test is described as follows: competition with […] photoaffinity ligand (PAL) in human AHR-expressing hepatic cytosol. The format is binding.

The structures appear in SMILES notation.

Consider `O=c1oc2cc(O)ccc2c2ccc(O)cc12` [UroA, Urolithin A], for which the IC50 amounted to 800 nM.
